Experimental data taken from patent publication US20240269139A1, “COMPOUNDS FOR TARGETED PROTEIN DEGRADATION OF KINASES” (DANA-FARBER CANCER INSTITUTE, INC., priority 2020, published 2024).
“And” between values parts separate entries of the source, which are not always exact repeats. Equal values may be shown once. Read-outs that look alike come from different tables or passages of the source.

Test system: protein kinases (human kinome)
Type: cell-based
Conditions: for logFC of FER: FER P16591-3; for logFC FYN: FYN P06241-2; for logFC LCK: accession P06239-3; for logFC PTK2B: accession Q14289-2
[1] = Experiment wp117, direction down
[2] = experiment wp045, direction of change down
[3] = experiment wp103, direction of change down
[4] = experiment wp107, direction of change down
[5] = experiment wp117, direction of change down

SMILES: Cc1ccc(NC(=O)c2cccc(C(F)(F)F)c2)cc1N1Cc2cnc(Nc3ccc(N4CCN(Cc5cn(CCCCCOc6cccc7c6C(=O)N(C6CCC(=O)NC6=O)C7=O)nn5)CC4)nc3)nc2N(C)C1=O (stereo not shown) [DB0646, N-(3-(7-((6-(4-((1-(5-((2-(2,6-Dioxopiperidin-3-yl)-1,3-dioxoisoindolin-4-yl)oxy)pentyl)-1H-1,2,3-triazol-4-yl)methyl)piperazin-1-v)pyridin-3-yl)amino)-1-methyl-2-oxo-1,4-dihydropyrimido[4,5-d]pyrimidin-3(2H)-yl)-4-methylphenyl)-3-(trifluoromethyl)benzamide]
- logFC MAP3K20 (Q9NYL2-2) (Experiment wp114): −0.8962
- logFC MAP3K20 (Q9NYL2-2) (Experiment wp117): −0.6701
- logFC of MAPK8 (P45983-2) (Experiment wp117): −0.7835
- logFC MAPK8 (P45983-2) [1]: −0.7835
- logFC TNK2 (Q07912-3) [1]: −0.9833
- logFC MAPK8 (P45983-3) (Experiment wp160, 4 hr, direction down): −0.611
- logFC MAPK8 (P45983-3) (Experiment wp160, 8 hr, direction down): −1.01
- logFC (FER (P16591-3), experiment wp114, direction down): −0.5921
- logFC (FER (P16591-3), experiment wp172, direction down): −1.014
- logFC of FER (experiment wp114): −0.5921
- logFC of FER (experiment wp172): −1.014
- logFC FYN (experiment wp107): −0.3999
- logFC FYN (experiment wp160, 4 hr): −0.3922
- logFC (GK P32189-3, experiment wp114): −0.3632
- logFC LCK [2]: −0.5631
- logFC LCK [3]: −0.4496
- logFC LCK [4]: −0.3963
- logFC LCK [5]: −0.4202
- logFC (LIMK2 (P53671-3), experiment wp105, direction down): −0.7299
- logFC of LIMK2 (LIMK2 P53671-3, experiment wp105): −0.7299
- logFC (LYN (P07948-2), experiment wp105): −0.985
- logFC MAPK8 (MAPK8 P45983-4, experiment wp045): −0.9774
- logFC MAPK14 (MAPK14, accession Q16539-2, experiment wp105, direction of change down): −0.5822
- logFC MAPK14 (MAPK14, accession Q16539-2, experiment wp117, direction of change down): −0.6436
- logFC MAPK14 (MAPK14, accession Q16539-2, experiment wp160, 4 hr, direction of change down): −0.7051
- logFC MAPK14 (MAPK14, accession Q16539-2, experiment wp160, 8 hr, direction of change down): −1.092
- logFC MAPK14 (MAPK14 Q16539-2, experiment wp105): −0.5822
- logFC MAPK14 (MAPK14 Q16539-2, experiment wp117): −0.6436
- logFC MAPK14 (MAPK14 Q16539-2, experiment wp160, 4 hr): −0.7051
- logFC MAPK14 (MAPK14 Q16539-2, experiment wp160, 8 hr): −1.092
- targets with significantly different degrader efficacy in the different cell lines with no obvious difference in protein expression (MOLT-4, KELLY, HEK293T): CSK, MAPK9
- logFC (PTK2B (Q14289-2), experiment wp107, direction down): −2.484
- logFC (PTK2B (Q14289-2), experiment wp117, direction down): −2.583
- logFC PTK2B [4]: −2.484
- logFC PTK2B [5]: −2.583
- logFC (SRC (P12931-2) protein abundance, degrader vs DMSO, down): −0.4152 and −0.4412 and −0.4274 and −0.3839
- logFC (TAOK2 (Q9UL54-2), experiment wp160, 8 hr): −0.5973
- logFC (TNK2 (Q07912-3), experiment wp107, direction down): −0.8258
- logFC (TNK2 (Q07912-3), experiment wp117, direction down): −0.9833
- logFC MAP3K20 (Q9NYL2-2) (experiment wp045): −1.182
- logFC LCK (P06239-3) [2]: −0.5631
- logFC MAP3K20 (Q9NYL2-2) (experiment wp103): −0.7004
- logFC CDK11B (P21127-3) [3]: −0.3334
- logFC LCK (P06239-3) [3]: −0.4496
- logFC of LYN (P07948-2) (experiment wp105): −0.985
- logFC of MAPK8 (P45983-3) (experiment wp105): −0.4094
- logFC MAP3K20 (Q9NYL2-2) (experiment wp107): −0.7825
- logFC LCK (P06239-3) [4]: −0.3963
- logFC MAP3K20 (Q9NYL2-2) (experiment wp114): −0.8962
- logFC MAP3K20 (Q9NYL2-2) (experiment wp117): −0.6701
- logFC LCK (P06239-3) [5]: −0.4202
- logFC of MAPK8 (P45983-3) (experiment wp160, 4 hr): −0.611
- logFC of MAPK8 (P45983-3) (experiment wp160, 8 hr): −1.01
- logFC TAOK2 (Q9UL54-2) (experiment wp160, 8 hr, direction of change down): −0.5973
- Total no. kinase hits (number of degraded kinases per library compound): 33
